pIC50: −log10 of the molar value.
Target: T1, human MRGPRX2 (Homo sapiens, UniProt Q96LB1)
T1 sequence (Q96LB1 1-330): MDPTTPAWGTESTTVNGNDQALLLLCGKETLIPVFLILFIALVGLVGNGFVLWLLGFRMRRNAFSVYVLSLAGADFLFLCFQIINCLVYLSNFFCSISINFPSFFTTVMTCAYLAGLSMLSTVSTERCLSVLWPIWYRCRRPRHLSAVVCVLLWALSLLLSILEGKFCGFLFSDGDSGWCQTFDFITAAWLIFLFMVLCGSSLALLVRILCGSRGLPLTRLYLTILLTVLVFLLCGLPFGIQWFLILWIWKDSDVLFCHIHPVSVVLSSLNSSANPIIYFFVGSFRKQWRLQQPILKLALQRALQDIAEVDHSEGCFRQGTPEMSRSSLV
Experiment: Ca2+ mobilization assay (FLIPR TETRA): inhibition of Cortistatin-14 mediated MRGPRX2 activation

SMILES | pIC50
CC(C(=O)Nc1ccc(Oc2cccc(=O)[nH]2)cn1)N1CCC(F)(F)[C@@H](c2ccc(=O)[nH]c2)C1 (stereo partly drawn) [Example 267, 2-((S)-4,4-difluoro-3-(6-oxo-1,6-dihydropyridin-3-yl)piperidin-1-yl)-N-(5-((6-oxo-1,6-dihydropyridin-2-yl)oxy)pyridin-2-yl)propanamide] | 7.00 to 8.00
CNCc1cc(C2CN(C(C)C(=O)Nc3ccc(Oc4ccc(F)cc4)cn3)CCC2(F)F)c[nH]c1=O (centres unmarked) [Example 237, 2-(4,4-difluoro-3-(5-((methylamino)methyl)-6-oxo-1,6-dihydropyridin-3-yl)piperidin-1-yl)-N-(5-(4-fluorophenoxy)pyridin-2-yl)propanamide] | ≥ 8.00
C[C@@H](C(=O)Nc1ccc(OCC2CC2)nn1)[C@H]1CCC(F)(F)[C@@H](c2ccc(=O)[nH]c2)C1 [Example 276, (R)-N-(6-(cyclopropylmethoxy)pyridazin-3-yl)-2-((1S,3R)-4,4-difluoro-3-(6-oxo-1,6-dihydropyridin-3-yl)cyclohexyl)propanamide] | 7.00 to 8.00
C[C@@H](C(=O)Nc1ccc(OCC2CC2)cn1)N1CCC(F)(F)[C@@H](c2ccc(=O)n(C)c2)C1 [Example 150, (S)—N-(5-(cyclopropylmethoxy)pyridin-2-yl)-2-((S)-4,4-difluoro-3-(1-methyl-6-oxo-1,6-dihydropyridin-3-yl)piperidin-1-yl)propanamide] | 7.00 to 8.00
C[C@@H](C(=O)Nc1ccc(Oc2cc(F)c(F)cc2F)cn1)N1CCC(F)(F)[C@@H](c2ccc(=O)[nH]c2)C1 [Example 97, (S)-2-((S)-4,4-difluoro-3-(6-oxo-1,6-dihydropyridin-3-yl)piperidin-1-yl)-N-(5-(2,4,5-trifluorophenoxy)pyridin-2-yl)propanamide] | ≥ 8.00
CC(C(=O)Nc1ccc(Oc2ncc(F)cc2C#N)cn1)N1CCC(F)(F)[C@@H](c2ccc(=O)[nH]c2)C1 (stereo partly drawn) [Example 92, N-(5-((3-cyano-5-fluoropyridin-2-yl)oxy)pyridin-2-yl)-2-((S)-4,4-difluoro-3-(6-oxo-1,6-dihydropyridin-3-yl)piperidin-1-yl)propanamide] | 7.00 to 8.00
C[C@@H](C(=O)Nc1ccc(Oc2ncc(F)cc2F)cn1)N1CCC(F)(F)[C@@H](c2ccc(=O)[nH]c2)C1 [Example 66, (S)-2-((S)-4,4-difluoro-3-(6-oxo-1,6-dihydropyridin-3-yl)piperidin-1-yl)-N-(5-((3,5-difluoropyridin-2-yl)oxy)pyridin-2-yl)propanamide] | ≥ 8.00
CC(=O)NCc1cc(C2CN(C(C)C(=O)Nc3ccc(F)cn3)CCC2(F)F)cc[n+]1[O-] (centres unmarked) [Example 263] | 5.50 to 7.00
CC(C(=O)Nc1ccc(OCC2CCC2)cn1)N1CCC(F)(F)[C@@H](c2ccc(=O)[nH]c2)C1 (stereo partly drawn) [Example 30, N-(5-(cyclobutyl-methoxy)pyridin-2-yl)-2-((S)-4,4-difluoro-3-(6-oxo-1,6-dihydropyridin-3-yl)piperidin-1-yl)propanamide] | 5.50 to 7.00
C[C@H]1C[C@@H](c2ccc(=O)[nH]n2)CN([C@@H](C)C(=O)Nc2ccc(F)cn2)C1 [Example 162, (S)—N-(5-fluoropyridin-2-yl)-2-((3S,5R)-3-methyl-5-(6-oxo-1,6-dihydropyridazin-3-yl)piperidin-1-yl)propanamide] | 5.50 to 7.00
C[C@@H](C(=O)Nc1ccc(OCc2ccccc2)cn1)N1CCC(F)(F)[C@@H](c2ccc(=O)[nH]c2)C1 [Example 22, (S)-N-(5-(benzyloxy)pyridin-2-yl)-2-((S)-4,4-difluoro-3-(6-oxo-1,6-dihydropyridin-3-yl)piperidin-1-yl)propanamide] | 5.50 to 7.00
CC(C(=O)Nc1cnc(Oc2ccc(F)cc2CO)cn1)N1CCC(F)(F)[C@@H](c2cc[n+]([O-])cc2)C1 (some centres unmarked) [Example 274] | 5.50 to 7.00
C[C@@H](C(=O)Nc1ccc(OCC2CC2)cn1)[C@H]1CCC(F)(F)[C@@H](c2ccc(=O)[nH]c2)C1 (single isomer, unassigned) [Example 275] | ≥ 8.00
C[C@@H](C(=O)Nc1ccc(OCC2CC2)cn1)N1CCC[C@@H](c2ccc(=O)[nH]n2)C1 (single isomer, unassigned) [Example 185] | 5.50 to 7.00
CC(N)c1cc(C2CN([C@@H](C)C(=O)Nc3ccc(OCC4CC4)nn3)CCC2(F)F)c[nH]c1=O (stereo partly drawn) [Example 222, (2S)-2-(3-(5-(1-aminoethyl)-6-oxo-1,6-dihydropyridin-3-yl)-4,4-difluoropiperidin-1-yl)-N-(6-(cyclopropylmethoxy)pyridazin-3-yl)propanamide] | 7.00 to 8.00
C[C@@H](C(=O)Nc1ccc(OCC2CC2)cn1)N1CCC(F)(F)[C@@](C)(c2ccc(=O)[nH]c2)C1 [Example 163, (S)—N-(5-(cyclopropylmethoxy)pyridin-2-yl)-2-((S)-4,4-difluoro-3-methyl-3-(6-oxo-1,6-dihydropyridin-3-yl)piperidin-1-yl)propanamide] | 5.50 to 7.00

SMILES | pIC50
C[C@@H](C(=O)Nc1ccc(Oc2ccc(F)cc2F)cn1)[C@H]1CCC(F)(F)[C@@H](c2cc[n+]([O-])cc2)C1 [Example 291, 4-((1R,5S)-5-((R)-1-((5-(2,4-difluorophenoxy)pyridin-2-yl)amino)-1-oxopropan-2-yl)-2,2-difluorocyclohexyl)pyridine 1-oxide] | ≥ 8.00
C[C@@H](C(=O)Nc1ccc(C(F)(F)c2ccc(F)cc2)cn1)N1CCC(F)(F)[C@@H](c2cc[n+]([O-])cc2)C1 [Example 127, 4-((S)-1-((S)-1-((5-(difluoro(4-fluorophenyl)methyl)pyridin-2-yl)amino)-1-oxopropan-2-yl)-4,4-difluoropiperidin-3-yl)pyridine 1-oxide] | 7.00 to 8.00
Cc1cccc(-c2ccc(NC(=O)[C@H](C)N3CCC(F)(F)[C@@H](c4ccc(=O)[nH]c4)C3)nc2)n1 [Example 11, (S)-2-((S)-4,4-difluoro-3-(6-oxo-1,6-dihydropyridin-3-yl)piperidin-1-yl)-N-(6-methyl-[2,3′-bipyridin]-6′-yl)propanamide] | 5.50 to 7.00
C[C@@H](C(=O)Nc1ccc(Cl)cn1)N1CCC[C@@H](c2c[nH]c(=O)c(CO)c2)C1 (single isomer, unassigned) [Example 177] | 4.50 to 5.50
C[C@@H](C(=O)Nc1ccc(C2CCCC2)cn1)N1CCC(F)(F)[C@@H](c2ccc(=O)[nH]c2)C1 [Example 14, (S)-N-(5-cyclopentyl-pyridin-2-yl)-2-((S)-4,4-difluoro-3-(6-oxo-1,6-dihydropyridin-3-yl)piperidin-1-yl)propanamide] | 7.00 to 8.00
C[C@@H](C(=O)Nc1ccc(Oc2c(F)cc(F)cc2F)cn1)N1CCC(F)(F)[C@@H](c2ccc(=O)[nH]c2)C1 [Example 96, (S)-2-((S)-4,4-difluoro-3-(6-oxo-1,6-dihydropyridin-3-yl)piperidin-1-yl)-N-(5-(2,4,6-trifluorophenoxy)pyridin-2-yl)propanamide] | ≥ 8.00
C[C@@H](C(=O)Nc1ccc(Oc2ccc(F)cc2)cn1)N1CCC(F)(F)[C@@H](c2c[nH]c(=O)c([C@H](N)C(F)(F)F)c2)C1 (single isomer, unassigned) [Example 233] | ≥ 8.00
CC(C(=O)Nc1ccc(F)cn1)N1CCC(F)(F)C(c2ccc(=O)n(Cc3ncco3)c2)C1 (centres unmarked) [Example 198, 2-(4,4-difluoro-3-(1-(oxazol-2-ylmethyl)-6-oxo-1,6-dihydropyridin-3-yl)piperidin-1-yl)-N-(5-fluoropyridin-2-yl)propanamide] | 7.00 to 8.00
C[C@@H](C(=O)Nc1ccc(Oc2ccc(F)cc2CO)cn1)N1CCC(F)(F)[C@@H](c2cc[n+]([O-])cc2)C1 [Example 273, 4-((S)-4,4-difluoro-1-((S)-1-((5-(4-fluoro-2-(hydroxymethyl)phenoxy)pyridin-2-yl)amino)-1-oxopropan-2-yl)piperidin-3-yl)pyridine 1-oxide] | 7.00 to 8.00
C[C@@H](C(=O)Nc1ccc(F)cn1)N1CCC(F)(F)[C@@H](c2ccc(=O)n(Cc3ccccc3)c2)C1 [Example 195] | ≥ 8.00
CC(Oc1ccc(NC(=O)C(C)N2CCC(F)(F)[C@@H](c3ccc(=O)[nH]c3)C2)nc1)C1CC1 (stereo partly drawn) [Example 31, N-(5-(1-cyclopropyl-ethoxy)pyridin-2-yl)-2-((S)-4,4-difluoro-3-(6-oxo-1,6-dihydropyridin-3-yl)piperidin-1-yl)propanamide] | 5.50 to 7.00
C[C@@H](C(=O)Nc1ccc(OCC2CC2)nn1)N1CCC(F)(F)[C@@H](c2cc[n+]([O-])cc2)C1 (single isomer, unassigned) [Example 109] | 5.50 to 7.00
C[C@@H](C(=O)Nc1ccc(OCC2CC2)nn1)N1CCC(F)(F)C(c2c[nH]c(=O)c(Br)c2)C1 (stereo partly drawn) [Example 221, (2S)-2-(3-(5-bromo-6-oxo-1,6-dihydropyridin-3-yl)-4,4-difluoropiperidin-1-yl)-N-(6-(cyclopropylmethoxy)pyridazin-3-yl)propanamide] | 7.00 to 8.00
C[C@@H](C(=O)Nc1cnc(C2CC2)cn1)N1CCC(F)(F)[C@@H](c2ccc(=O)[nH]c2)C1 [Example 70, (S)-N-(5-cyclopropyl-pyrazin-2-yl)-2-((S)-4,4-difluoro-3-(6-oxo-1,6-dihydropyridin-3-yl)piperidin-1-yl)propanamide] | 5.50 to 7.00
CC(C(=O)Nc1cnc(Oc2ccc(F)cc2F)cn1)N1CCC(F)(F)C(c2cc[n+]([O-])c(C(N)=O)c2)C1 (centres unmarked) [Example 260, 2-carbamoyl-4-(1-(1-((5-(2,4-difluorophenoxy)pyrazin-2-yl)amino)-1-oxopropan-2-yl)-4,4-difluoropiperidin-3-yl)pyridine 1-oxide] | ≥ 8.00
C[C@@H](C(=O)Nc1ccc(Oc2cccnc2)cn1)N1CCC(F)(F)[C@@H](c2ccc(=O)[nH]c2)C1 [Example 59, (S)-2-((S)-4,4-difluoro-3-(6-oxo-1,6-dihydropyridin-3-yl)piperidin-1-yl)-N-(5-(pyridin-3-yloxy)pyridin-2-yl)propanamide] | 5.50 to 7.00

From patent publication US11976057B2, “MrgX2 antagonists” (GlaxoSmithKline Intellectual Property Development Limited, priority 2020, dated 2024)
